Among the data in patent publication US20230022157A1 (Achillion Pharmaceuticals, Inc., priority 2018, published 2023) are IC50 values, retold here.

T1 sequence (P00746 26-253): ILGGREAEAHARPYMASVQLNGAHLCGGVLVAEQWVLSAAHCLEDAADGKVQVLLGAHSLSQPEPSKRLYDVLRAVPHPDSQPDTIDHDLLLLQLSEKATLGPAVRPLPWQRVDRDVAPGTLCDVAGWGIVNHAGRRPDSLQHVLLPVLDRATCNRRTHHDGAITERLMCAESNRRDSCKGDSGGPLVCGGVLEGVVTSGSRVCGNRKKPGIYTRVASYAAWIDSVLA

One assay concerns the target T1, Human Factor D (Homo sapiens, UniProt P00746).
T1 construct: purified from human serum; purchased Complement Technology, Inc; host or cells: human serum (natural protein, not recombinant)
The assay can be described thus: Human Factor D Assay.
Details: not given
It counts as biochemical. The method in brief: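 Serum-purified human factor D (80 nM final) preincubated 5 min at room temperature with test compound in 50 mM Tris, 1M NaCl, pH 7.5. Z-L-Lys-SBzl substrate and DTNB then added, each at 100 μM final. IC50 from nonlinear regression of reaction rate against compound concentration.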
In turn, `CC(=O)c1nn(CC(=O)N2[C@H](C(=O)Nc3nc(Br)ccc3C)C[C@@]3(CNC(=O)COCCOCCNC(=O)COCCOCCNC(=O)CC[C@H](NC(=O)CCCCCCCCCCCCCCCCC(=O)O)C(=O)O)C[C@@H]23)c2ccc(OC(=O)NC3CC3)cc12` [Compound 15, (S)-1-((1R,3S,5R)-2-(2-(3-acetyl-5-((cyclopropylcarbamoyl)oxy)-1H-indazol-1-yl)acetyl)-3-((6-bromo-3-methylpyridin-2-yl)carbamoyl)-2-azabicyclo[3.1.0]hexan-5-yl)-24-carboxy-3,12,21,26-tetraoxo-5,8,14,17-tetraoxa-2,11,20,25-tetraazatritetracontan-43-oic acid] showed a 50% inhibitory concentration (IC50) of under 1000 nM.

The same assay, now with this note: Human Factor D 80 nM, substrate Z-L-Lys-SBzl, assay of Example 3; read-out: IC50 (Stars).
For the compound `CC(=O)c1nn(CC(=O)N2[C@H](C(=O)Nc3nc(C(F)(F)F)ccc3C)C[C@@]3(C)C[C@@H]23)c2ccc(-c3cncc(S(N)(=O)=O)c3)cc12` [Compound 22, (1R,3S,5R)-2-(2-(3-Acetyl-5-(5-sulfamoylpyridin-3-yl)-1H-indazol-1-yl)acetyl)-5-methyl-N-(3-methyl-6-(trifluoromethyl)pyridin-2-yl)-2-azabicyclo[3.1.0]hexane-3-carboxamide], the IC50 was under 1000 nM. Regarding `CONC(=O)c1nn(CC(=O)N2[C@H](C(=O)Nc3nc(Br)ccc3C)C[C@@]3(C)C[C@@H]23)c2ccc(-c3cnc(C)nc3)cc12` [Compound 9, 1-(2-((1R,3S,5R)-3-((6-Bromo-3-methylpyridin-2-yl)carbamoyl)-5-methyl-2-azabicyclo[3.1.0]hexan-2-yl)-2-oxoethyl)-N-methoxy-5-(2-methylpyrimidin-5-yl)-1H-indazole-3-carboxamide], the concentration for half-maximal inhibition (IC50) was under 1000 nM. Same read-out and setting: in the case of `CC(=O)c1nn(CC(=O)N2C[C@H](F)C[C@H]2C(=O)Nc2cccc(Br)n2)c2ccc(-c3ccc(C)nc3)cc12` [Compound 33] it was under 1000 nM. `CC(=O)c1nn(CC(=O)N2[C@H](C(=O)Nc3cccc(C(F)(F)F)c3F)C[C@@]3(C)C[C@@H]23)c2cnc(-c3cnc(C)nc3)cc12` [Compound 23, (1R,3S,5R)-2-(2-(3-Acetyl-5-(2-methylpyrimidin-5-yl)-1H-pyrazolo[3,4-C]pyridine-1-yl)acetly)-N-(2-fluoro-3-(trifluoromethyl)phenyl)-5-methyl-2-azabicyclo[3.1.0]hexane-3-carboxamide]: the IC50 was under 1000 nM.

The assay is the same for the next values; noted with them: Human Factor D 80 nM, substrate Z-L-Lys-SBzl; Table 2; read-out: IC50 (Stars).
For `COC(=O)c1ncc(-c2ccc3c(c2)c(C(C)=O)nn3CC(=O)N2[C@H](C(=O)Nc3nc(Br)ccc3C)C[C@@]3(C)C[C@@H]23)cn1` [Compound 46, methyl 5-(3-acetyl-1-(2-((1R,3S,5R)-3-((6-bromo-3-methylpyridin-2-yl)carbamoyl)-5-methyl-2-azabicyclo[3.1.0]hexan-2-yl)-2-oxoethyl)-1H-indazol-5-yl)pyrimidine-2-carboxylate], the IC50 is under 1000 nM.

With `CC(=O)c1nn(CC(=O)N2[C@H](C(=O)Nc3nc(Br)ccc3Cl)C[C@@]3(C)C[C@@H]23)c2c(C)cc(-c3cnc(CO)nc3)cc12` [Compound 80, (1R,3S,5R)-2-(2-(3-acetyl-5-(2-(hydroxymethyl)pyrimidin-5-yl)-7-methyl-1H-indazol-1-yl)acetyl)-N-(6-bromo-3-chloropyridin-2-yl)-5-methyl-2-azabicyclo[3.1.0]hexane-3-carboxamide], the concentration for half-maximal inhibition (IC50) was under 1000 nM. Same read-out and setting: the value for `CC(=O)c1nn(CC(=O)N2[C@H](C(=O)Nc3nc(Br)ccc3C)C[C@@]3(C)C[C@@H]23)c2c(C)cc(-c3cncc(S(C)(=O)=O)c3)cc12` [Compound 129, (1R,3S,5R)-2-(2-(3-Acetyl-7-methyl-5-(5-(methylsulfonyl)pyridin-3-yl)-1H-indazol-1-yl)acetyl)-N-(6-bromo-3-methylpyridin-2-yl)-5-methyl-2-azabicyclo[3.1.0]hexane-3-carboxamide] was under 1000 nM; that for `CC(=O)c1cn(CC(=O)N2[C@H](C(=O)Nc3nc(OC(F)(F)F)ccc3C)C[C@@]3(C)C[C@@H]23)c2c(C)cc(-c3cnc4cc(C)nn4c3)cc12` [Compound 206, (1R,3S,5R)-2-(2-(3-acetyl-7-methyl-5-(2-methylpyrazolo[1,5-a]pyrimidin-6-yl)-1H-indol-1-yl)acetyl)-5-methyl-N-(3-methyl-6-(trifluoromethoxy)pyridin-2-yl)-2-azabicyclo[3.1.0]hexane-3-carboxamide] was under 1000 nM. On the same count and under the same terms, the value for `CC(=O)c1nn(CC(=O)N2[C@H](C(=O)N[C@@H](C)C(F)(F)F)C[C@@]3(C)C[C@@H]23)c2c(C)cc(-c3cnc(C)nc3)cc12` [Compound 153, (1R,3S,5R)-2-{2-[3-acetyl-7-methyl-5-(2-methylpyrimidin-5-yl)indazol-1-yl]acetyl}-5-methyl-N-[(2S)-1,1,1-trifluoropropan-2-yl]-2-azabicyclo[3.1.0]hexane-3-carboxamide] was under 1000 nM; that for `CC(=O)c1cn(CC(=O)N2[C@H](C(=O)Nc3cncc(Br)n3)C[C@@]3(C)C[C@@H]23)c2c(C)cc(-c3cnc(CF)nc3)cc12` [Compound 218, (1R,3S,5R)-2-(2-(3-acetyl-5-(2-(fluoromethyl)pyrimidin-5-yl)-7-methyl-1H-indol-1-yl)acetyl)-N-(6-bromopyrazin-2-yl)-5-methyl-2-azabicyclo[3.1.0]hexane-3-carboxamide] was 1000 to 10000 nM; that for `CC(=O)c1nn(CC(=O)N2C[C@H]3C[C@H]3[C@H]2C(=O)Nc2nc(Br)ccc2C)c2ccc(-c3cncc(S(N)(=O)=O)c3)cc12` [Compound 69, (1R,2S,5S)-3-(2-(3-Acetyl-5-(5-sulfamoylpyridin-3-yl)-1H-indazol-1-yl)acetyl)-N-(6-bromo-3-methylpyridin-2-yl)-3-azabicyclo[3.1.0]hexane-2-carboxamide] was under 1000 nM. On the same count and under the same terms, the value for `COC(=O)C1(c2cncc(-c3ccc4c(c3)c(C(C)=O)nn4CC(=O)N3[C@H](C(=O)Nc4nc(Br)ccc4C)C[C@@]4(C)C[C@@H]34)c2)CC1` [Compound 97, Methyl 1-(5-(3-acetyl-1-(2-((1R,3S,5R)-3-((6-bromo-3-methylpyridin-2-yl)carbamoyl)-5-methyl-2-azabicyclo[3.1.0]hexan-2-yl)-2-oxoethyl)-1H-indazol-5-yl)pyridin-3-yl)cyclopropane-1-carboxylate] was under 1000 nM; that for `CCCCC(NC(=O)[C@@H]1C[C@@]2(C)C[C@H]2N1C(=O)Cn1nc(C(C)=O)c2cc(-c3cnc(C)nc3)cc(C)c21)C(F)(F)F` (stereo partly drawn) [Compound 88, (1R,3S,5R)-2-{2-[3-acetyl-7-methyl-5-(2-methylpyrimidin-5-yl)indazol-1-yl]acetyl}-5-methyl-N-(1,1,1-trifluorohexan-2-yl)-2-azabicyclo[3.1.0]hexane-3-carboxamide] was under 1000 nM. As for `CC(=O)c1nn(CC(=O)N2[C@H](C(=O)N[C@@H](C)C3CCCCC3)C[C@@]3(C)C[C@@H]23)c2c(C)cc(-c3cnc(C)nc3)cc12` [Compound 72, (1R,3S,5R)-2-(2-(3-Acetyl-7-methyl-5-(2-methylpyrimidin-5-yl)-1H-indazol-1-yl)acetyl)-N—((S)-1-cyclohexylethyl)-5-methyl-2-azabicyclo[3.1.0]hexane-3-carboxamide], the half-inhibitory concentration (IC50) is under 1000 nM.

Turning to `CC(=O)c1cn(CC(=O)N2[C@H](C(=O)Nc3nc(C(F)(F)F)ccc3C)C[C@@]3(C)C[C@@H]23)c2c(C)cc(-c3cnc4cc(F)nn4c3)cc12` [Compound 225, (1R,3S,5R)-2-(2-(3-acetyl-5-(2-fluoropyrazolo[1,5-a]pyrimidin-6-yl)-7-methyl-1H-indol-1-yl)acetyl)-5-methyl-N-(3-methyl-6-(trifluoromethyl)pyridin-2-yl)-2-azabicyclo[3.1.0]hexane-3-carboxamide], the IC50 is under 1000 nM. On the same count and under the same terms, the value for `COC[C@@]12C[C@@H](C(=O)Nc3nc(C(F)(F)F)ccc3C)N(C(=O)Cn3cc(C(C)=O)c4cc(-c5cnc(C)nc5)cc(C)c43)[C@@H]1C2` [Compound 229, (1R,3S,5S)-2-(2-(3-acetyl-7-methyl-5-(2-methylpyrimidin-5-yl)-1H-indol-1-yl)acetyl)-5-(methoxymethyl)-N-(3-methyl-6-(trifluoromethyl)pyridin-2-yl)-2-azabicyclo[3.1.0]hexane-3-carboxamide] was under 1000 nM. `CC(=O)c1cn(CC(=O)N2[C@H](C(=O)Nc3nc(Br)ccc3C)C[C@@]3(C)C[C@@H]23)c2c(C)cc(-c3cnc(CO)nc3)cc12` [Compound 62, (1R,3S,5R)-2-(2-(3-acetyl-5-(2-(hydroxymethyl)pyrimidin-5-yl)-7-methyl-11H-indol-1-yl)acetyl)-N-(6-bromo-3-methylpyridin-2-yl)-5-methyl-2-azabicyclo[3.1.0]hexane-3-carboxamide]: the half-inhibitory concentration (IC50) was under 1000 nM.

Take `CC(=O)c1cn(CC(=O)N2[C@H](C(=O)Nc3nc(C(F)(F)F)ccc3C)C[C@@]3(C)C[C@@H]23)c2c(C)cc(-c3cnc(CO)nc3)cc12` [Compound 161, (1R,3S,5R)-2-(2-(3-acetyl-5-(2-(hydroxymethyl)pyrimidin-5-yl)-7-methyl-1H-indol-1-yl)acetyl)-5-methyl-N-(3-methyl-6-(trifluoromethyl)pyridin-2-yl)-2-azabicyclo[3.1.0]hexane-3-carboxamide]: the IC50 was under 1000 nM.

As for `CC(=O)c1nn(CC(=O)N2[C@H](C(=O)Nc3nc(Br)c(F)cc3C)C[C@@]3(C)C[C@@H]23)c2c(C)cc(-c3cnc(C(=O)O)nc3)cc12` [Compound 45, 5-(3-acetyl-1-(2-((1R,3S,5R)-3-((6-bromo-5-fluoro-3-methylpyridin-2-yl)carbamoyl)-5-methyl-2-azabicyclo[3.1.0]hexan-2-yl)-2-oxoethyl)-7-methyl-1H-indazol-5-yl)pyrimidine-2-carboxylic acid], the 50% inhibitory concentration (IC50) is under 1000 nM.

For the compound `CC(=O)c1cn(CC(=O)N2[C@H](C(=O)Nc3nc(Br)c(F)cc3C)C[C@@]3(C)C[C@@H]23)c2c(C)cc(-c3cnc(CO)nc3)cc12` [Compound 78, (1R,3S,5R)-2-(2-(3-acetyl-5-(2-(hydroxymethyl)pyrimidin-5-yl)-7-methyl-1H-indol-1-yl)acetyl)-N-(6-bromo-5-fluoro-3-methylpyridin-2-yl)-5-methyl-2-azabicyclo[3.1.0]hexane-3-carboxamide], the concentration for half-maximal inhibition (IC50) was under 1000 nM.

For orientation: IC50 means the concentration needed to halve the response being measured.
